Measured values reported in ChEMBL document CHEMBL6120968, “Discovery of Thiadiazoleamide Derivatives as Potent, Selective, and Orally Available Antagonists Disrupting Androgen Receptor Homodimer” (J Med Chem, 2024).

Tests used:
[1] = Antiproliferative activity against human WPMY-1 cells assessed as reduction in cell viability upto 2 uM incubated for 3 days by MTT assay; format: toxicity, cell-based; details: wpmy-1, 72 h, time 3 day
[2] = Microsomal stability in mouse liver microsome assessed as half life measured upto 60 mins in presence of NADPH and UDPGA by HPLC-MS/MS analysis; format: ADME; details: liver microsomes
[3] = Microsomal stability in monkey liver microsome assessed as half life measured upto 60 mins in presence of NADPH and UDPGA by HPLC-MS/MS analysis; format: ADME, Macaca mulatta; details: rhesus monkey, liver microsomes
[4] = AUC (0 to t) in rat at 20 mg/kg, po by LC-MS/MS analysis; format: ADME, organism-based; details: in vivo
[5] = Microsomal stability in mouse liver microsome assessed as intrinsic clearance measured upto 60 mins in presence of NADPH and UDPGA by HPLC-MS/MS analysis; format: ADME; details: liver microsomes, read-out: CLH
[6] = Observed apparent oral clearance in rat at 20 mg/kg, po by LC-MS/MS analysis; format: ADME, organism-based; details: in vivo
[7] = MRTlast in rat at 20 mg/kg, iv by LC-MS/MS analysis; format: ADME, organism-based; details: in vivo
[8] = Half life in rat at 20 mg/kg, po by LC-MS/MS analysis; format: ADME, organism-based; details: in vivo
[9] = Cmax in rat at 20 mg/kg, po by LC-MS/MS analysis; format: ADME, organism-based; details: in vivo
[10] = Acute toxicity in male CB17.SCID mouse implanted with human LNCaP cells assessed as abnormal behavior at 1250 mg/kg, po measured within 14 days; format: organism-based; details: in vivo, 336 h, time 14 day
[11] = Microsomal stability in mouse liver microsome assessed as parent compound remaining at 60 mins in presence of NADPH and UDPGA by HPLC-MS/MS analysis; format: ADME; details: liver microsomes, read-out: Stability
[12] = Half life in rat at 20 mg/kg, iv by LC-MS/MS analysis; format: ADME, organism-based; details: in vivo
[13] = Microsomal stability in rat liver microsome assessed as parent compound remaining at 60 mins in presence of NADPH and UDPGA by HPLC-MS/MS analysis; format: ADME; details: liver microsomes, read-out: Stability
hERG (KCNH2) = hERG (KCNH2) (Homo sapiens, UniProt Q12809); test: Inhibition of hERG at 10 uM relative to control; format: toxicity
[14] = Microsomal stability in Beagle dog liver microsome assessed as parent compound remaining at 60 mins in presence of NADPH and UDPGA by HPLC-MS/MS analysis; format: ADME, Canis lupus familiaris; details: liver microsomes, read-out: Stability
[15] = AUC (0 to infinity) in rat at 20 mg/kg, iv by LC-MS/MS analysis; format: ADME, organism-based; details: in vivo
[16] = Microsomal stability in human liver microsome assessed as intrinsic clearance measured upto 60 mins in presence of NADPH and UDPGA by HPLC-MS/MS analysis; format: ADME; details: liver microsomes, read-out: CLH
[17] = Microsomal stability in monkey liver microsome assessed as intrinsic clearance measured upto 60 mins in presence of NADPH and UDPGA by HPLC-MS/MS analysis; format: ADME, Macaca mulatta; details: rhesus monkey, liver microsomes, read-out: CLH
[18] = Microsomal stability in human liver microsome assessed as parent compound remaining at 60 mins in presence of NADPH and UDPGA by HPLC-MS/MS analysis; format: ADME; details: liver microsomes, read-out: Stability
[19] = Observed apparent volume of distribution during terminal phase in rat at 20 mg/kg, po by LC-MS/MS analysis; format: ADME, organism-based; details: in vivo, read-out: Vz/F_obs
Progesterone receptor = biological target: T1, Progesterone receptor (Homo sapiens, UniProt P06401); test: Agonist activity at progesterone receptor (unknown origin)
T1 sequence (P06401 whole entry): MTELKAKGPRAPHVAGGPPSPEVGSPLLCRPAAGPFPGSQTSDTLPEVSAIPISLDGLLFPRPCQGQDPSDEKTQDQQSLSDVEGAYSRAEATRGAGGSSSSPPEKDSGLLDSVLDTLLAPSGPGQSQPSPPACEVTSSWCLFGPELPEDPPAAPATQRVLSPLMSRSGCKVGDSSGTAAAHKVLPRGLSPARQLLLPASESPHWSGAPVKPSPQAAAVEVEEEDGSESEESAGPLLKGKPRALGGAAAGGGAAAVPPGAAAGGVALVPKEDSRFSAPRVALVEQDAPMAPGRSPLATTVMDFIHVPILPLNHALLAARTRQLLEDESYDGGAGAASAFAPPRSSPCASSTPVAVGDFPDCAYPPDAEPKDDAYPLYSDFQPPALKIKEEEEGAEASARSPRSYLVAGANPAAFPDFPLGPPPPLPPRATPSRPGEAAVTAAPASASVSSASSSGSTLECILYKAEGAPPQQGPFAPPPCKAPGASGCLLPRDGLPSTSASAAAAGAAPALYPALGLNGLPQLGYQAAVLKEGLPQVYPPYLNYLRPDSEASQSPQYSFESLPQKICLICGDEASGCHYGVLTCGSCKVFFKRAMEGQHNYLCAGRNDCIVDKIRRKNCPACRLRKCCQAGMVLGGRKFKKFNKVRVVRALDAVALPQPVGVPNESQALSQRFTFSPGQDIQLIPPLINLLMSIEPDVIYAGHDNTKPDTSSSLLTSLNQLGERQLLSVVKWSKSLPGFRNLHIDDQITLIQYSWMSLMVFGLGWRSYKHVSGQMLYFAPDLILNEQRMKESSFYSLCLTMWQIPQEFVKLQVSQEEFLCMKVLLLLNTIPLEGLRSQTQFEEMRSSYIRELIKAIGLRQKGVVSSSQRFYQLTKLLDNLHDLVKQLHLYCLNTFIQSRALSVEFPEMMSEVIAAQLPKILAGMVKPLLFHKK

[20] = Microsomal stability in Beagle dog liver microsome assessed as half life measured upto 60 mins in presence of NADPH and UDPGA by HPLC-MS/MS analysis; format: ADME, Canis lupus familiaris; details: liver microsomes
[21] = AUC (0 to t) in rat at 20 mg/kg, iv by LC-MS/MS analysis; format: ADME, organism-based; details: in vivo
[22] = Acute toxicity in male CB17.SCID mouse implanted with human LNCaP cells assessed as body weight loss at 1250 mg/kg, po measured within 14 days; format: organism-based; details: in vivo, 336 h, time 14 day
[23] = Microsomal stability in Beagle dog liver microsome assessed as intrinsic clearance measured upto 60 mins in presence of NADPH and UDPGA by HPLC-MS/MS analysis; format: ADME, Canis lupus familiaris; details: liver microsomes, read-out: CLH

Chain of hERG (KCNH2) (Q12809 whole entry): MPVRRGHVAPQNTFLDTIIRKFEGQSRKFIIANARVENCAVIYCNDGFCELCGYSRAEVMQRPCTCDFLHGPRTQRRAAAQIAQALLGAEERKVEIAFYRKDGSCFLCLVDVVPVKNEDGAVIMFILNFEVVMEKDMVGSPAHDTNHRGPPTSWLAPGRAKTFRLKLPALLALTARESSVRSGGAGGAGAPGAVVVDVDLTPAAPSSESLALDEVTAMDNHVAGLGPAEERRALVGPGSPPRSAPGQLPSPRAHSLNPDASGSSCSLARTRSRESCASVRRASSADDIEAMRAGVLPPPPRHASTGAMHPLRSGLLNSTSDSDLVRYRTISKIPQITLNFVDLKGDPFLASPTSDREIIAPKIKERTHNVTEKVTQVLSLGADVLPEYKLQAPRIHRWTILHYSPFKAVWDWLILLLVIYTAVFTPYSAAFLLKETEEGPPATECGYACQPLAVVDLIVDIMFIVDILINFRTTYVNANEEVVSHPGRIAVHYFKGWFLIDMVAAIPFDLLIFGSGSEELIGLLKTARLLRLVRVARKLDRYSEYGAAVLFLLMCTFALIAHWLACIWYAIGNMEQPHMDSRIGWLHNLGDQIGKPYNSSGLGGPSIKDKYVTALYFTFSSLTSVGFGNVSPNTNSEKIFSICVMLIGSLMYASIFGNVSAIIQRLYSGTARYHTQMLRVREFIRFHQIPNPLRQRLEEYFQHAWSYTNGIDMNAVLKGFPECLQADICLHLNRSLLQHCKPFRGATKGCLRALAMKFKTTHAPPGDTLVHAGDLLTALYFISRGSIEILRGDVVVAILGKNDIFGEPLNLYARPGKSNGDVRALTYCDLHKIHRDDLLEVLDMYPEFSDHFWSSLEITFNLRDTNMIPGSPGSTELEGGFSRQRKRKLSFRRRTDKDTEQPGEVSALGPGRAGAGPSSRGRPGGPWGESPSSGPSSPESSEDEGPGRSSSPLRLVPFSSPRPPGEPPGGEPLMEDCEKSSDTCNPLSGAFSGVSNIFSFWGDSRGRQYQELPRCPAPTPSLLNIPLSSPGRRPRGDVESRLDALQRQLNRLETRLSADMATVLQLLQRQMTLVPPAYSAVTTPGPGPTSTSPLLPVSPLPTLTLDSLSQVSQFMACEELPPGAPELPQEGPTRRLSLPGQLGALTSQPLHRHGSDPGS

Cc1oc(-c2cccc(C(F)(F)F)c2)cc1C(=O)Nc1nc(CN2CCOCC2)ns1
Activity [1]: Non-toxic
half-life [2]: 0.642 h
half-life [3]: 1.58 h
AUC(0-t) [4]: 20500 ng·h/mL
microsomal CLint [5]: 18 µL/min/mg
CL/F [6]: 17.3 mL/min/kg
MRT last [7]: 6 h
half-life [8]: 6.86 h
Cmax [9]: 1880 ng/mL
Activity [10]: Non-toxic
remaining at 1 h [11]: 32.3%
half-life [12]: 7.84 h
remaining at 1 h [13]: 22.5%
inhibition at 10 µM (hERG (KCNH2)): 20.7%
remaining at 1 h [14]: 12.6%
AUC(0-inf) [15]: 35800 ng·h/mL
microsomal CLint [16]: 18.7 µL/min/mg
microsomal CLint [17]: 7.3 µL/min/mg
remaining at 1 h [18]: 29.7%
Vd/F [19]: 11.1 L/kg
IC50 (Progesterone receptor): > 10 µM
half-life [20]: 0.367 h
AUC(0-t) [21]: 32000 ng·h/mL
Activity [22]: Non-toxic
microsomal CLint [23]: 31.5 µL/min/mg
